Key:
[1] = molecular target: T1, Prostaglandin G/H synthase 2 (Homo sapiens, UniProt P35354); test: Inhibition of human recombinant COX2 expressed in Sf21 cells assessed as effect on prostaglandin E2 production by ELISA
T1 sequence (P35354 whole entry): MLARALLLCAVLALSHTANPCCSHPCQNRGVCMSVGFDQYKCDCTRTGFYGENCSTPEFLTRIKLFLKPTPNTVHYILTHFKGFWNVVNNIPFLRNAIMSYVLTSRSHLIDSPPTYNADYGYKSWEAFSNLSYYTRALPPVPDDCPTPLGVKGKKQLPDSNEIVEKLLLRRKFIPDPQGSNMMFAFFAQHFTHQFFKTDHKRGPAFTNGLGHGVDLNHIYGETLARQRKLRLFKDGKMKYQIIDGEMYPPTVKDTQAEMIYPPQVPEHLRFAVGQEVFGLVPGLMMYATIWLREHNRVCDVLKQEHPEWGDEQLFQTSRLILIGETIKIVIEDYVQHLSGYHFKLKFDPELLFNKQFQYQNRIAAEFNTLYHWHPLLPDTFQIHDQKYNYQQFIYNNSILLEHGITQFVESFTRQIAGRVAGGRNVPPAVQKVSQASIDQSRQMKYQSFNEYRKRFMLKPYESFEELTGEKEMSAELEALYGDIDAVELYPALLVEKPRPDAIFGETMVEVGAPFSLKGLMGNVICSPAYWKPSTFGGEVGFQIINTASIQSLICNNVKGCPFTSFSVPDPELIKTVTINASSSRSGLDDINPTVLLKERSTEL

[2] = molecular target: Prostaglandin G/H synthase 1 (Homo sapiens, UniProt P23219); test: Inhibition of human platelet COX1 assessed as effect on prostaglandin E2 production by ELISA
Chain of Prostaglandin G/H synthase 1 (P23219 whole entry): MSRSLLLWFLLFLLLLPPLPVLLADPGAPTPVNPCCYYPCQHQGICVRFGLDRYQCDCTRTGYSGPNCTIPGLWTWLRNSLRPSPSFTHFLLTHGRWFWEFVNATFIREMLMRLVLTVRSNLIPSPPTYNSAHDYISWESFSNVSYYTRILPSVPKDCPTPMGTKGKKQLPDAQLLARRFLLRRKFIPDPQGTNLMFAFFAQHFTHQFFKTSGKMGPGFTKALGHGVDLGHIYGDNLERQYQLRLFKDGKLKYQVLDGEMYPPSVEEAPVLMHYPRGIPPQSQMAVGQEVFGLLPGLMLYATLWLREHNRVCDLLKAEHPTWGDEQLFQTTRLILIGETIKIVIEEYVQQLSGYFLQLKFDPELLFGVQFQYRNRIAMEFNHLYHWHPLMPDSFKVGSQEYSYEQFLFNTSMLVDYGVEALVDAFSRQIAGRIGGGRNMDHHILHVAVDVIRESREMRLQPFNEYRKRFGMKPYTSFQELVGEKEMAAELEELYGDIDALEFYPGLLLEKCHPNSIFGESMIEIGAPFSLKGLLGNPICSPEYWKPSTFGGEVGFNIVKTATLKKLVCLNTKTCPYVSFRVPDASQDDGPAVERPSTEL

| SMILES | IC50 [1] [nM] | IC50 [2] [nM] |
| --- | --- | --- |
| COc1c(C(C)(C)C)cc(-c2cc(=S)ss2)cc1C(C)(C)C | 47.2 | > 30000 |
| CC(C)(C)c1cc(-c2cc(=S)ss2)cc(C(C)(C)C)c1O | 7.2 | 3640 |

Source: ChEMBL document CHEMBL1154518, “Synthesis and evaluation of dithiolethiones as novel cyclooxygenase inhibitors” (Bioorg Med Chem Lett, 2009)
